Values of other authors, collected in patent publication US10898449B2, “Transdermal therapeutic system containing asenapine” (LTS LOHMANN Therapie-Systeme AG, priority 2016, dated 2021).

Columns and labels:
[1] = sublingual administration, therapeutic doses
patients = conditions: human, in vivo

In the case of CN1C[C@H]2c3ccccc3Oc3ccc(Cl)cc3[C@@H]2C1 (relative stereo) [asenapine, (3aRS,12bRS)-rel-5-chloro-2,3,3a,12b-tetrahydro-2-methyl-1H-dibenz[2,3:6,7]oxepino[4,5-c]pyrrole], the terminal disposition half-life [1] is listed as “around 1 day” and the “Somnolence and anxiety (very common), share of the patients” value (patients) is listed as at least 10%.
